In PMC6851324, “Design and development of stapled transmembrane peptides that disrupt the activity of G-protein–coupled receptor oligomers” (The Journal of Biological Chemistry, 2019):
Where a SMILES comes first, the peptide text is derived from it. Bridges are numbered along the chain shown (N, C = ends). Where no end group is shown, it is not given here. [ ]: non-standard residue; d: D form. S5 = C=CCCC[C@](C)(N)C(=O)O; Nle = CCCC[C@H](N)C(=O)O

What follows are compounds tested against T1, 5-HT2AR–CB1R heteromers (Homo sapiens, UniProt P28223) (assay: NanoBiT BiLC peptide screening assay (LgBiT–CB1R + SmBiT–5-HT2AR)). Details: HEK293 cells transiently expressing LgBiT–CB1R and SmBiT–5-HT2AR, preincubated 1 h with 4 μM peptide, luminescence normalized to vehicle, n ≥ 5.
T1 construct: expressed in transfected cells; host or cells: HEK293 (ATCC CRL-1573), transient reverse transfection
Format: cell-based
Description: Figure 5. Identification of a small-stapled TM peptide disrupting 5-HT2AR–CB1R heteromers. A, schematic representation of the NanoBiT assay using N-terminally labeled constructs. In B, HEK293 cells transiently expressing the LgBT–CB1R and SmBiT–5-HT2AR complementary pairs were preincubated for 1 h at 37 °C with the indicated peptides (4 μM) or vehicle prior to luminescence recording. Data are mean RLU ± S.E. (error bars) (n ≥ 5) percentage of luminescence normalized to vehicle-treated cells. Statistical significance was evaluated by one-way ANOVA followed by Bonferroni post hoc tests, indicating significant differences over vehicle-treated cells (***, p ≤ 0.001; ****, p ≤ 0.0001) and for peptide 10 over its related peptides (####, p ≤ 0.0001). Peptide 10 potency (C) was evaluated as in A over increasing peptide concentrations (bottom) (n = 3). Alternatively, to assess the kinetics of the peptide 10–driven heteromer disruption (D), prior to the administration of the peptide, the cells were preincubated with substrate, and the luminescence was recorded over the following 30 min. Data are mean RLU ± S.E. (n ≥ 3) percentage of luminescence normalized to vehicle-treated cells.
To assess GPCR protein–protein interactions with the NanoBiT technology, HEK293 cells (50,000 cells/well) were seeded in poly-D-lysine–coated white clear bottom 96-well plates and reverse-transfected (see above) with the plasmids encoding the complementary NanoBiT hemiprotein fragments. For orientation screenings, cells were transfected with two different concentrations (50 and 100 ng/well) of each receptor alone or in combination with the investigated partner (see figure legends) in the presence of empty vector (pcDNA3.1(+)) to normalize the total amount of DNA/well. For studies in the presence of increasing nontagged receptor competitors, 100 ng of each receptor pair (CB1R LgBiT + CB1R SmBiT, 5-HT2AR LgBiT + 5-HT2AR SmBiT, and 5-HT2AR LgBiT + CB1R SmBiT) were co-transfected with increasing concentrations of the different nontagged constructs (from 0 to 300 ng/well), and the total amounts of DNA/well were normalized with empty vector (pcDNA3.1(+)). For the screening of stapled peptides, 50 ng/well of both LgBiT CB1R and SmBiT 5-HT2AR were reverse-transfected as detailed previously. 24 h post- transfection, the cell culture medium was removed, and the cells were starved in FBS-free DMEM for 4 h at 37 °C in a 5% CO2 humidified atmosphere. The cell culture medium was replaced by 100 μl of NanoBiT assay buffer (same as for cAMP measurements), and the plates were pre-equilibrated for 1 h at RT in the dark. When peptide pretreatment was required, peptides were added over this pre-equilibration step, except when studying inhibition kinetics, when the peptides were administered immediately after the baseline luminescence recording. 25 μl/well of a 5× solution of the Nano-Glo® live cell reagent containing the cell-permeable furimazine substrate dissolved in Nano-Glo® LCS dilution buffer were added, and the luminescence was immediately monitored in CLARIOstar® Multimode Plate Reader (BMG Labtech) with no lens (1-s integration time/well for 1 h every minute).
Dose–response curves were fitted using a four-parameter logistic nonlinear regression mode. Peptide stability data were fitted using a nonlinear regression mode for dissociation kinetics. All statistical tests, curve fitting, and graphing were performed using GraphPad Prism 8 (GraphPad Software, La Jolla, CA).

T1 sequence (P28223 2-471, one chain of several): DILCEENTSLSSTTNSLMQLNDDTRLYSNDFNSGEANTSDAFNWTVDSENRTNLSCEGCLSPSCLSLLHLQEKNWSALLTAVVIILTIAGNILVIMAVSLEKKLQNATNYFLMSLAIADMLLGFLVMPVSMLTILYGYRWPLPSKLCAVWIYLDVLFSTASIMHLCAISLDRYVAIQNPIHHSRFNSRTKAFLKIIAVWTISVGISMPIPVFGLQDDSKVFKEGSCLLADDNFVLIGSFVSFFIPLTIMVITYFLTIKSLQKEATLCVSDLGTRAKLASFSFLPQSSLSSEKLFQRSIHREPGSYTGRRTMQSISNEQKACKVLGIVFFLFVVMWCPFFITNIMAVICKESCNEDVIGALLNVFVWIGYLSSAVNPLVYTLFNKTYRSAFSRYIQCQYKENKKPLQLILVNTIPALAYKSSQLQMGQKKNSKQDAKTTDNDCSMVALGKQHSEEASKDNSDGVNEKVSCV

| Compound | effect on NanoBiT luminescence (heteromer disruption) |
| --- | --- |
| C=CCCC[C@](C)(NC(=O)[C@H](Cc1ccc(O)cc1)NC(=O)[C@@H](N)C(C)C)C(=O)N[C@@H](Cc1ccc(O)cc1)C(=O)N[C@@H](CCCC)C(=O)N[C@@](C)(CCCC=C)C(=O)N[C@H](C(=O)N[C@@H](CC(C)C)C(=O)N[C@@H](Cc1c[nH]c2ccccc12)C(N)=O)[C@@H](C)CC [Peptide 11] (H-VY[S5]Y[Nle][S5]ILW-NH2) | neither the version lacking the TAT amino acid sequence, compound 9, nor the nonstaple, compound 11, peptides induced any change |
| CCCC[C@H](NC(=O)[C@]1(C)CCC/C=C\CCC[C@](C)(NC(=O)[C@H](Cc2ccccc2)NC(=O)[C@H](CC(C)C)NC(=O)[C@H](CC(C)C)NC(=O)[C@H](CC(C)C)NC(=O)[C@@H](N)C(C)C)C(=O)N[C@@H](C(C)C)C(=O)N[C@@H](Cc2ccc(O)cc2)C(=O)N[C@@H](C)C(=O)N1)C(=O)N[C@@H](Cc1ccc(O)cc1)C(=O)N[C@H](C(=O)N[C@@H](CC(C)C)C(=O)N[C@@H](Cc1c[nH]c2ccccc12)C(N)=O)[C@@H](C)CC [Peptide 8] (H-VLLLF[S5]VYA[S5][Nle]YILW-NH2; staple (Z) 6-10) | not as efficient as compound 10 |
| GRKKRRQRRRKTLVLILVVLIICWGPLLAIMVY [TM6-TAT, reference compound] | decrease in the luminescence readout |
| ETYLMFWIGVTSVLLLFIVYAYMYILWGRKKRRQRRR [TM5-TAT, reference compound] | decrease in the luminescence readout |
